From PubChem BioAssay (NCI)
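Test compounds were applied to cells in 96-well plates for 48 hours at 5 doses. GI50 is the concentration that inhibits growth by half. TGI is the concentration that stops growth completely.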

What was measured:
Assay in all cases: NCI anticancer screen, dose series, 48 h
[1] = tested on: MCF7 breast
[2] = tested on: 786-0 renal
[3] = tested on: NCI-H460 lung
[4] = tested on: SW-620 colon
[5] = tested on: HOP-62 NSCLC
[6] = tested on: K-562 leukemia
[7] = tested on: HCT-116 colon
[8] = tested on: SK-MEL-28 melanoma
[9] = tested on: SF-268 CNS
[10] = tested on: SN12C renal
[11] = tested on: DU-145 prostate
[12] = tested on: HCT-15 colon
[13] = tested on: MDA-MB-231 breast
[14] = tested on: SK-MEL-2 melanoma
[15] = tested on: PC-3 prostate
[16] = tested on: COLO 205 colon
[17] = tested on: SNB-19 CNS
[18] = tested on: CAKI-1 renal
[19] = tested on: A498 renal
[20] = tested on: LOX IMVI melanoma
[21] = tested on: CCRF-CEM leukemia
[22] = tested on: T-47D breast
[23] = tested on: BT-549 breast
[24] = tested on: NCI/ADR-RES ovarian
[25] = tested on: HS 578T breast
[26] = tested on: OVCAR-3 ovarian
[27] = tested on: RXF 393 renal

Structure (SMILES): C=C1C(O)C2C(=C(CC)C13CC3)C(=O)C(C)(C)C2OC (centres undefined)
- GI50 [1]: 42.4 µM
- TGI [1]: > 100 µM
- GI50 [2]: > 100 µM
- TGI [2]: > 100 µM
- GI50 [3]: 39.3 µM
- TGI [3]: > 100 µM
- GI50 [4]: 59.9 µM
- TGI [4]: > 100 µM
- GI50 [5]: 90.8 µM
- TGI [5]: > 100 µM
- GI50 [6]: 31.3 µM
- TGI [6]: > 100 µM
- GI50 [7]: 28.3 µM
- TGI [7]: > 100 µM
- GI50 [8]: > 100 µM
- TGI [8]: > 100 µM
- GI50 [9]: > 100 µM
- TGI [9]: > 100 µM
- GI50 [10]: 74.2 µM
- TGI [10]: > 100 µM
- GI50 [11]: 57.9 µM
- TGI [11]: > 100 µM
- GI50 [12]: 59 µM
- TGI [12]: > 100 µM
- GI50 [13]: 87.5 µM
- TGI [13]: > 100 µM
- GI50 [14]: > 100 µM
- TGI [14]: > 100 µM
- GI50 [15]: 35.2 µM
- TGI [15]: > 100 µM
- GI50 [16]: > 100 µM
- TGI [16]: > 100 µM
- GI50 [17]: > 100 µM
- TGI [17]: > 100 µM
- GI50 [18]: 76.5 µM
- TGI [18]: > 100 µM
- GI50 [19]: > 100 µM
- TGI [19]: > 100 µM
- GI50 [20]: 43.1 µM
- TGI [20]: > 100 µM
- GI50 [21]: 27.5 µM
- TGI [21]: > 100 µM
- GI50 [22]: > 100 µM
- TGI [22]: > 100 µM
- GI50 [23]: > 100 µM
- TGI [23]: > 100 µM
- GI50 [24]: 92.7 µM
- TGI [24]: > 100 µM
- GI50 [25]: > 100 µM
- TGI [25]: > 100 µM
- GI50 [26]: 40.3 µM
- TGI [26]: > 100 µM
- GI50 [27]: > 100 µM
- TGI [27]: > 100 µM
